ChEMBL document CHEMBL1201862, “PubChem BioAssay data set” (2004)
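The compound was tested at five concentrations on cells cultured in 96-well plates, with a 48-hour exposure period. Here, GI50 denotes the concentration required for 50% inhibition of growth.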 Activity calls are given as the source filed them. Cut-off read from the data, not from the text of the source: active = GI50 up to about 1.1 µM and inactive = higher.

Columns and labels:
Assay in all cases: growth of human tumour cells (NCI), 48 h
UACC-62 = tested on: UACC-62
786-0 = tested on: 786-0
SNB-19 = tested on: SNB-19
A549 = tested on: A549
UACC-257 = tested on: UACC-257
NCI/ADR-RES = tested on: NCI/ADR-RES
Hs-578T = tested on: Hs-578T
SNB-75 = tested on: SNB-75
M14 = tested on: M14
EKVX = tested on: EKVX
SK-MEL-5 = tested on: SK-MEL-5
BT-549 = tested on: BT-549
U-251 = tested on: U-251
ACHN = tested on: ACHN
SF-268 = tested on: SF-268
MOLT-4 = tested on: MOLT-4
HL-60 = tested on: HL-60
OVCAR-5 = tested on: OVCAR-5
SR = tested on: SR

SMILES	GI50 (UACC-62)	GI50 (786-0)	GI50 (SNB-19)	GI50 (A549)	GI50 (UACC-257)	GI50 (NCI/ADR-RES)	GI50 (Hs-578T)	GI50 (SNB-75)	GI50 (M14)	GI50 (EKVX)	GI50 (SK-MEL-5)	GI50 (BT-549)	GI50 (U-251)	GI50 (ACHN)	GI50 (SF-268)	GI50 (MOLT-4)	GI50 (HL-60)	GI50 (OVCAR-5)	GI50 (SR)
O=[N+]([O-])/C=C/c1cccc(F)c1	8.04 µM (inactive)	1.66 µM (inactive)	11.7 µM (inactive)	4.16 µM (inactive)	3.79 µM (inactive)	13.1 µM (inactive)	3.12 µM (inactive)	13.7 µM (inactive)	2.74 µM (inactive)	3.03 µM (inactive)	4.5 µM (inactive)	2.03 µM (inactive)	3.53 µM (inactive)	2.54 µM (inactive)	12.4 µM (inactive)				
O=C1Nc2ccccc2/C1=N/Nc1nc(-c2ccc(Cl)c(Cl)c2)cs1		> 100 µM (inactive)	> 100 µM (inactive)	> 100 µM (inactive)	> 100 µM (inactive)	> 100 µM (inactive)		49.3 µM (inactive)	78.5 µM (inactive)	> 100 µM (inactive)	20 µM (inactive)		77.4 µM (inactive)	87.1 µM (inactive)		16 µM (inactive)	0.232 µM (active)	> 100 µM (inactive)	
CCCCN(CCCC)C(=C(C(Cl)=C(Cl)Cl)[N+](=O)[O-])N(CCCC)CCCC	87.3 µM (inactive)	> 100 µM (inactive)	> 100 µM (inactive)	> 100 µM (inactive)	32.1 µM (inactive)	> 100 µM (inactive)		> 100 µM (inactive)	> 100 µM (inactive)	67.5 µM (inactive)	> 100 µM (inactive)	> 100 µM (inactive)	45.9 µM (inactive)	> 100 µM (inactive)	> 100 µM (inactive)			85.5 µM (inactive)	
c1cc2sc1CSCCSCCSC2	> 100 µM (inactive)	> 100 µM (inactive)	> 100 µM (inactive)	> 100 µM (inactive)	> 100 µM (inactive)	> 100 µM (inactive)		> 100 µM (inactive)	> 100 µM (inactive)	> 100 µM (inactive)	> 100 µM (inactive)	> 100 µM (inactive)	> 100 µM (inactive)		> 100 µM (inactive)	> 100 µM (inactive)	> 100 µM (inactive)	> 100 µM (inactive)	> 100 µM (inactive)
Cc1c(C)c2ccc(O)cc2[nH]c1=O	> 100 µM (inactive)	> 100 µM (inactive)	> 100 µM (inactive)	> 100 µM (inactive)	> 100 µM (inactive)	> 100 µM (inactive)		98.9 µM (inactive)	> 100 µM (inactive)	> 100 µM (inactive)	> 100 µM (inactive)	> 100 µM (inactive)	> 100 µM (inactive)	> 100 µM (inactive)		> 100 µM (inactive)		> 100 µM (inactive)	> 100 µM (inactive)
CCN1C(=O)/C(=C\Nc2ccccc2)S/C1=N/Nc1ncc(CC(=O)Nc2ccccc2C)s1	83.6 µM (inactive)	> 100 µM (inactive)	> 100 µM (inactive)	58.2 µM (inactive)	> 100 µM (inactive)	45 µM (inactive)	45.6 µM (inactive)	28.4 µM (inactive)	> 100 µM (inactive)	> 100 µM (inactive)	46.5 µM (inactive)		60.5 µM (inactive)	83.8 µM (inactive)	88.5 µM (inactive)	51.5 µM (inactive)	42.6 µM (inactive)	> 100 µM (inactive)	38.2 µM (inactive)
COc1cccc(C(C#N)NNC(=O)c2c(Cl)c(Cl)c(Cl)c(Cl)c2-c2nc3cc(C(=O)c4ccccc4)ccc3[nH]2)c1O (stereo not drawn)		4.06 µM (inactive)	4.63 µM (inactive)	4.06 µM (inactive)	9.02 µM (inactive)	2.54 µM (inactive)		2 µM (inactive)	3.66 µM (inactive)	14.3 µM (inactive)	2.71 µM (inactive)	6.37 µM (inactive)	4.44 µM (inactive)	6.44 µM (inactive)		2.78 µM (inactive)	3.59 µM (inactive)	18.6 µM (inactive)	2.91 µM (inactive)
CCOC(CN=C=S)OCC	> 10 µM (inactive)	> 10 µM (inactive)	> 10 µM (inactive)	> 10 µM (inactive)	> 10 µM (inactive)	> 10 µM (inactive)	> 10 µM (inactive)	> 10 µM (inactive)	> 10 µM (inactive)	> 10 µM (inactive)	> 10 µM (inactive)		> 10 µM (inactive)	> 10 µM (inactive)	> 10 µM (inactive)	> 10 µM (inactive)	3.83 µM (inactive)		2.52 µM (inactive)
